Values belong to the molecule of their own block, whether it stands above or below them.
Experiments:
[1] = LogP by HPLC on reversed phase columns (EEC directive 79/831 Annex V.A8); assay type: physicochemical; conditions: method [a]: LC-UV, acidic range, 0.1% formic acid in water and acetonitrile as eluent; for chromatographic logP: reversed phase HPLC column
Method: Measurement of LogP values was performed according to EEC directive 79/831 Annex V.A8 by HPLC (High Performance Liquid Chromatography) on reversed phase columns with the following methods: • ^[a] […] Lambda-max-values were determined using UV-spectra from 200 nm to 400 nm and the peak values of the chromatographic signals.

Puccinia recondita = test: Example A: in vivo preventive test on Puccinia recondita (brown rust on wheat); conditions: 264 h, 500 ppm of active ingredient, preventive spray, evaluated 11 days after inoculation, read-out: efficacy
Method: (§1) The test is evaluated 11 days after the inoculation.

[2] = tested on: Blumeria graminis f sp. hordei; test: Example E: in vivo preventive Blumeria test (barley); conditions: 168 h, 500 ppm of active ingredient, preventive spray, evaluated 7 days after inoculation, read-out: efficacy
Method: • Solvent: 49 parts by weight of N,N-dimethylacetamide • Emulsifier: 1 part by weight of alkylaryl polyglycol ether To produce a suitable preparation of active compound, 1 part by weight of active compound or active compound combination was mixed with the stated amounts of solvent and emulsifier, and the concentrate was diluted with water to the desired concentration. To test for preventive activity, young plants were sprayed with the preparation of active compound or active compound combination at the stated rate of application. After the spray coating had been dried, the plants were dusted with spores of Blumeria graminis f sp. hordei. The plants were placed in the greenhouse at a temperature of approximately 18° C. and a relative atmospheric humidity of approximately 80% to promote the development of mildew pustules. The test was evaluated 7 days after the inoculation.

Uromyces appendiculatus = test: Example D: in vivo preventive test on Uromyces appendiculatus (bean rust); conditions: 264 h, 500 ppm of active ingredient, preventive spray, evaluated 11 days after inoculation, read-out: efficacy
Method: as §1

Sphaerotheca fuliginea [3] = test: Example C: in vivo preventive test on Sphaerotheca fuliginea (powdery mildew on cucurbits); conditions: Podosphaera fuliginea, 360 h; 500 ppm of active ingredient; gherkin; preventive spray; evaluated 15 days after inoculation; read-out: efficacy
Method: The test is evaluated 15 days after the inoculation.

Septoria tritici = test: Example G: in vivo 5 days preventive Septoria tritici test (wheat), comparison vs. WO-A 2010/146116; conditions: inoculated 5 days after spraying, evaluated 21 days after inoculation
Method: • Solvent: 49 parts by weight of N,N-dimethylacetamide • Emulsifier: 1 part by weight of alkylaryl polyglycol ether To produce a suitable preparation of active compound, 1 part by weight of active compound or active compound combination is mixed with the stated amounts of solvent and emulsifier, and the concentrate is diluted with water to the desired concentration. To test for preventive and long-lasting activity, young plants are sprayed with a preparation of active compound or active compound combination at the stated rate of application. After the spray coating has been dried, the plants are placed in the greenhouse at a temperature of approximately 15° C. and a relative atmospheric humidity of approximately 80%. 5 days later the plants are sprayed with a spore suspension of Septoria tritici. The plants remain for 48 hours in an incubation cabinet at approximately 20° C. and a relative atmospheric humidity of approximately 100% and afterwards for 60 hours at approximately 15° C. in a translucent incubation cabinet at a relative atmospheric humidity of approximately 100%. Then the plants are placed in the greenhouse at a temperature of approximately 15° C. and a relative atmospheric humidity of approximately 80%. The test is evaluated 21 days after the inoculation.

Sphaerotheca fuliginea [4] = test: Example H: in vivo preventive test on Sphaerotheca (cucumbers), comparison vs. WO-A 2010/146116; conditions: evaluated 7 days after inoculation
Method: To produce a suitable preparation of active compound, 1 part by weight of active compound is mixed with the stated amounts of solvent and emulsifier, and the concentrate is diluted with water to the desired concentration. To test for preventive activity, young plants are sprayed with the preparation of active compound at the stated rate of application. After the spray coating has dried on, the plants are inoculated with an aqueous spore suspension of Sphaerotheca fuliginea. The plants are then placed in a greenhouse at approximately 23° C. and a relative atmospheric humidity of approximately 70%. The test is evaluated 7 days after the inoculation.

Structure (SMILES): CCC1COC(Cn2cncn2)(c2ccc(Oc3ccc(S(F)(F)(F)(F)F)cc3)nc2C(F)(F)F)O1 (mixture of isomers) [I.01]
LogP [1]: 4.15^[a]

Structure (SMILES): CCCC1COC(Cn2cncn2)(c2ccc(Oc3ccc(Br)cc3)nc2C(F)(F)F)O1 (mixture of isomers) [I.08]
LogP [1]: 4.32^[a]

Structure (SMILES): CC1COC(Cn2cncn2)(c2ccc(Oc3ccc(S(F)(F)(F)(F)F)cc3)nc2C(F)(F)F)O1 (mixture of isomers) [I.19]
LogP [1]: 3.85^[a]

Structure (SMILES): CC1COC(Cn2cncn2)(c2ccc(Oc3ccc(OC(F)(F)F)cc3)nc2C(F)(F)F)O1 (mixture of isomers) [I.21]
LogP [1]: 3.76 ^[a]

Structure (SMILES): FC(F)(F)c1nc(Oc2ccc(Br)cc2)ccc1C1(Cn2cncn2)OCC(C(F)(F)F)O1 (racemic) [I.23]
LogP [1]: 3.80 ^[a]

Structure (SMILES): FC(F)(F)c1nc(Oc2ccc(Br)cc2)ccc1C1(Cn2cncn2)OCC(C(F)(F)F)O1 (racemic) [I.26]
LogP [1]: 2.26 ^[a]

Structure (SMILES): FC(F)(F)c1ccc(Oc2ccc(C3(Cn4nc[nH]c4=S)OCCO3)c(C(F)(F)F)n2)cc1 [I-S.01, 2-[[2-[2-(trifluoromethyl)-6-[4-(trifluoromethyl)phenoxy]-3-pyridyl]-1,3-dioxolan-2-yl]methyl]-4H-1,2,4-triazole-3-thione]
pest or weed control at 500 ppm (Puccinia recondita): 90 to 100%
pest or weed control at 500 ppm [2]: 90 to 100%
chromatographic logP [1]: 3.18
pest or weed control at 500 ppm (Uromyces appendiculatus): 90 to 100%
pest or weed control at 500 ppm (Sphaerotheca fuliginea [3]): 90 to 100%

Structure (SMILES): FC(F)(F)c1nc(Oc2ccc(Cl)cc2)ccc1C1(Cn2nc[nH]c2=S)OCCO1 [I-S.02, 2-[[2-[6-(4-chlorophenoxy)-2-(trifluoromethyl)-3-pyridyl]-1,3-dioxolan-2-yl]methyl]-4H-1,2,4-triazole-3-thione]
pest or weed control at 500 ppm (Puccinia recondita): 90 to 100%
pest or weed control at 500 ppm [2]: 90 to 100%
chromatographic logP [1]: 3.06
pest or weed control at 500 ppm (Uromyces appendiculatus): 90 to 100%
pest or weed control at 500 ppm (Sphaerotheca fuliginea [3]): 90 to 100%

Structure (SMILES): Cc1ccc(Oc2ccc(C3(Cn4nc[nH]c4=S)OCCO3)c(C(F)(F)F)n2)cc1 [I-S.03]
LogP [1]: 2.94 ^[a]

Structure (SMILES): CSc1ccc(Oc2ccc(C3(Cn4nc[nH]c4=S)OCCO3)c(C(F)(F)F)n2)cc1 [I-S.04]
LogP [1]: 2.95 ^[a]

Structure (SMILES): FC(F)(F)c1nc(Oc2ccc(Br)cc2)ccc1C1(Cn2nc[nH]c2=S)OCCO1 [I-S.05]
LogP [1]: 3.14 ^[a]

Structure (SMILES): CCC1COC(Cn2cncn2)(c2ccc(Oc3ccc(C(F)(F)F)cc3)nc2C(F)(F)F)O1 (stereo not drawn) [I.07, 3-[4-ethyl-2-(1,2,4-triazol-1-ylmethyl)-1,3-dioxolan-2-yl]-2-(trifluoromethyl)-6-[4-(trifluoromethyl)phenoxy]pyridine]
pest or weed control at 500 ppm (Puccinia recondita): 90 to 100%
pest or weed control at 500 ppm [2]: 90 to 100%
chromatographic logP [1]: 3.96
pest or weed control at 500 ppm (Uromyces appendiculatus): 90 to 100%
pest or weed control at 500 ppm (Sphaerotheca fuliginea [3]): 90 to 100%

Structure (SMILES): FC(F)(F)c1nc(Oc2ccc(S(F)(F)(F)(F)F)cc2)ccc1C1(Cn2cncn2)OCCO1 [I.11]
pest or weed control at 500 ppm (Puccinia recondita): 90 to 100%
pest or weed control at 500 ppm [2]: 70 to 79%
chromatographic logP [1]: 3.54
pest or weed control at 500 ppm (Uromyces appendiculatus): 90 to 100%
pest or weed control at 500 ppm (Sphaerotheca fuliginea [3]): 90 to 100%
Efficacy in % (Septoria tritici; rate of application 100 ppm): 71%
Efficacy in % (Septoria tritici; rate of application 500 ppm): 100%

Structure (SMILES): FC(F)(F)c1ccc(Oc2ccc(C3(Cn4cncn4)OCCO3)c(C(F)(F)F)n2)cc1 [I.14, 3-[2-(1,2,4-triazol-1-ylmethyl)-1,3-dioxolan-2-yl]-2-(trifluoromethyl)-6-[4-(trifluoromethyl)phenoxy]pyridine]
pest or weed control at 500 ppm (Puccinia recondita): 90 to 100%
pest or weed control at 500 ppm [2]: 90 to 100%
chromatographic logP [1]: 3.29
Efficacy in % (Sphaerotheca fuliginea [4]; rate of application 10 ppm): 75%
Efficacy in % (Sphaerotheca fuliginea [4]; rate of application 100 ppm): 100%
pest or weed control at 500 ppm (Uromyces appendiculatus): 90 to 100%
pest or weed control at 500 ppm (Sphaerotheca fuliginea [3]): 90 to 100%
Efficacy in % (Septoria tritici; rate of application 100 ppm): 100%
Efficacy in % (Septoria tritici; rate of application 500 ppm): 100%

Structure (SMILES): CSc1ccc(Oc2ccc(C3(Cn4cncn4)OCCO3)c(C(F)(F)F)n2)cc1 [I.20]
LogP [1]: 3.05 ^[a]

Structure (SMILES): FC(F)(F)Oc1ccc(Oc2ccc(C3(Cn4cncn4)OCCO3)c(C(F)(F)F)n2)cc1 [I.22]
LogP [1]: 3.46 ^[a]

Structure (SMILES): CCC1COC(Cn2cncn2)(c2ccc(Oc3ccc(OC(F)(F)F)cc3)nc2C(F)(F)F)O1 (stereo not drawn) [I.24]
LogP [1]: 4.09 ^[a]

Structure (SMILES): CC1(c2ccc(Oc3ccc(Cl)cc3)nc2C(F)(F)F)OCCO1 [XV.01, 6-(4-chlorophenoxy)-3-(2-methyl-1,3-dioxolan-2-yl)-2-(trifluoromethyl)pyridine]
chromatographic logP [1]: 4.44

Structure (SMILES): Clc1ccc(Oc2cc(Cl)c(C3(Cn4cncn4)OCCO3)cn2)cc1 [drawing 80, reference compound]
Efficacy in % (Septoria tritici; rate of application 100 ppm): 50%
Efficacy in % (Septoria tritici; rate of application 500 ppm): 80%

Structure (SMILES): Clc1ccc(Oc2cc(Cl)c(C3(Cn4cncn4)OCCO3)cn2)cc1 [drawing 85, reference compound]
Efficacy in % (Sphaerotheca fuliginea [4]; rate of application 10 ppm): 14%
Efficacy in % (Sphaerotheca fuliginea [4]; rate of application 100 ppm): 100%

Further lines, with some results ahead:

LogP [1]: 3.55^[a]
Structure (SMILES): CC1COC(Cn2cncn2)(c2ccc(Oc3ccc(Cl)cc3)nc2C(F)(F)F)O1 (mixture of isomers) [I.03]

LogP [1]: 4.19^[a]
Structure (SMILES): CCCC1COC(Cn2cncn2)(c2ccc(Oc3ccc(Cl)cc3)nc2C(F)(F)F)O1 (mixture of isomers) [I.05]

LogP [1]: 3.94^[a]
Structure (SMILES): CCC1COC(Cn2cncn2)(c2ccc(Oc3ccc(Br)cc3)nc2C(F)(F)F)O1 (mixture of isomers) [I.06]

LogP [1]: 3.62^[a]
Structure (SMILES): CC1COC(Cn2cncn2)(c2ccc(Oc3ccc(C(F)(F)F)cc3)nc2C(F)(F)F)O1 (mixture of isomers) [I.10]

LogP [1]: 3.83^[a]
Structure (SMILES): CCC1COC(Cn2cncn2)(c2ccc(Oc3ccc(Cl)cc3)nc2C(F)(F)F)O1 (mixture of isomers) [I.15]

LogP [1]: 3.85^[a]
Structure (SMILES): CC1OC(Cn2cncn2)(c2ccc(Oc3ccc(Br)cc3)nc2C(F)(F)F)OC1C (mixture of isomers) [I.17]

LogP [1]: 3.76^[a]
Structure (SMILES): CC1OC(Cn2cncn2)(c2ccc(Oc3ccc(Cl)cc3)nc2C(F)(F)F)OC1C (mixture of isomers) [I.18]

LogP [1]: 3.46^[a]
Structure (SMILES): CC1COC(Cn2cncn2)(c2ccc(Oc3ccc(Cl)cc3)nc2C(F)(F)F)O1 (racemic) [I.09]

LogP [1]: 3.48^[a]
Structure (SMILES): CC1COC(Cn2cncn2)(c2ccc(Oc3ccc(Cl)cc3)nc2C(F)(F)F)O1 (single isomer, unassigned) [I.12]

LogP [1]: 3.48^[a]
Structure (SMILES): CC1COC(Cn2cncn2)(c2ccc(Oc3ccc(Cl)cc3)nc2C(F)(F)F)O1 (single isomer, unassigned) [I.13]

chromatographic logP [1]: 3.35
Structure (SMILES): FC(F)(F)c1nc(Oc2ccc(Br)cc2)ccc1C1(Cn2cncn2)OCCO1 [I.02]
pest or weed control at 500 ppm (Puccinia recondita): 90 to 100%
pest or weed control at 500 ppm [2]: 90 to 100%
pest or weed control at 500 ppm (Uromyces appendiculatus): 90 to 100%
pest or weed control at 500 ppm (Sphaerotheca fuliginea [3]): 90 to 100%
Efficacy in % (Septoria tritici; rate of application 100 ppm): 93%
Efficacy in % (Septoria tritici; rate of application 500 ppm): 100%

LogP [1]: 3.55
chromatographic logP [1]: 3.59
Structure (SMILES): CC1COC(Cn2cncn2)(c2ccc(Oc3ccc(Br)cc3)nc2C(F)(F)F)O1 (stereo not drawn) [I.16, 6-(4-bromophenoxy)-3-[4-methyl-2-(1,2,4-triazol-1-ylmethyl)-1,3-dioxolan-2-yl]-2-(trifluoromethyl)pyridine]
pest or weed control at 500 ppm (Puccinia recondita): 90 to 100%
pest or weed control at 500 ppm [2]: 90 to 100%
pest or weed control at 500 ppm (Uromyces appendiculatus): 90 to 100%
pest or weed control at 500 ppm (Sphaerotheca fuliginea [3]): 90 to 100%

LogP [1]: 3.21 ^[a]
Structure (SMILES): Cc1ccc(Oc2ccc(C3(Cn4cncn4)OCCO3)c(C(F)(F)F)n2)cc1 [I.25]
